Patent US8435978B2, “Substituted sulfonamide compounds” (Gruenenthal GmbH, priority 2006, dated 2013)
Counter-ions that a name gives are not always drawn.

What was measured:
[1] = molecular target: T1, human B1R receptor (Homo sapiens, UniProt P46663); assay: Functional study on the bradykinin receptor 1 (B1R), FLIPR Ca2+ assay, hB1R cells; format: cell-based; conditions: CHO-K1, test substance 10 μM, agonist Lys-Des-Arg9-bradykinin 0.5 nM, % inhibition compared with the maximum achievable inhibition, read-out: B1R Antagonism, human [10 μM] % Inhibition
T1 construct: host or cells: CHO K1 cells (Chinese hamster ovary), stably transfected
T1 sequence (P46663 1-353): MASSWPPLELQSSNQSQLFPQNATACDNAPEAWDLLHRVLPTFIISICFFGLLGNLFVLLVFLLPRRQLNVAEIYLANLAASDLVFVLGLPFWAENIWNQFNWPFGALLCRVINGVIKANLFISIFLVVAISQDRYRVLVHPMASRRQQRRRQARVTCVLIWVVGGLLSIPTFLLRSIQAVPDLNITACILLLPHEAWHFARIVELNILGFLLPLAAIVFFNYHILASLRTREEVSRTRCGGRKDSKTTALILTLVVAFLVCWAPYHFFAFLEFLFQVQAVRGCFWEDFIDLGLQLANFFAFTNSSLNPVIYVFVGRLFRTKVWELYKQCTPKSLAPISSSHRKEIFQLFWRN
Procedure, shortened: (§1)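 CHO K1 cells stably expressing human or rat B1R were loaded with Fluo-4 and read on a FLIPR (ex 488/em 540 nm, peak fluorescence). Test compounds at 10 μM were added first, then after 10 min agonist: Lys-Des-Arg9-bradykinin 0.5 nM for hB1R, Des-Arg9-bradykinin 100 nM for rB1R; % inhibition versus maximum inhibition.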

[2] = molecular target: T2, B1R receptor of the rat (Rattus norvegicus, UniProt P97583); assay: Functional study on the bradykinin receptor 1 (B1R), FLIPR Ca2+ assay, rB1R cells; format: cell-based; conditions: CHO-K1, test substance 10 μM, agonist Des-Arg9-bradykinin 100 nM, % inhibition compared with the maximum achievable inhibition, read-out: B1R Antagonism, rat [10 μM] % Inhibition
T2 construct: host or cells: CHO K1 cells (Chinese hamster ovary), stably transfected
T2 sequence (P97583 1-337): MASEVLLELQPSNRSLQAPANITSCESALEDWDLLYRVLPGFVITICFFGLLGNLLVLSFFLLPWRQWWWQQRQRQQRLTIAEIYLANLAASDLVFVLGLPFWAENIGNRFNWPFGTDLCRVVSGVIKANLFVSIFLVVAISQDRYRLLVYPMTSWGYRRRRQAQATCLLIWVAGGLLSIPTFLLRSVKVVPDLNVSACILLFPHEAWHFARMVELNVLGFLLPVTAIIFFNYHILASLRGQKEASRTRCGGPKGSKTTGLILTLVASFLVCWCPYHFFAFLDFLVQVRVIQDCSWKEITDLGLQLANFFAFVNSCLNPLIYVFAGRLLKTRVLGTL
Procedure, shortened: as §1

Row | inhibition at 10 µM [1] | inhibition at 10 µM [2] | Structure (SMILES)
1 | 77.4% | 100% | COc1ccc(S(=O)(=O)N2c3ccccc3CC2COCC(=O)N2CCC(CCN3CCCCC3)CC2)cc1 (stereo not shown) [Example 547, 2-((1-(4-methoxyphenylsulfonyl)indolin-2-yl)methoxy)-1-(4-(2-(piperidin-1-yl)ethyl)piperidin-1-yl)ethanone]
2 | 26.9% | 94.5% | COc1ccc(C2CCCCN2C(=O)COCC2CCCCN2S(=O)(=O)c2c(C)cc(C)cc2C)cn1 (stereo not shown) [Example 227, 2-((1-(mesitylsulfonyl)piperidin-2-yl)methoxy)-1-(2-(6-methoxypyridin-3-yl)piperidin-1-yl)ethanone]
3 | 107% | 89.6% | Cc1ccc(S(=O)(=O)N2CCCCC2COCC(=O)N2CCN(C3CCN(C)CC3)CC2)c2ccccc12 (stereo not shown) [Example 155, 2-((1-(4-methylnaphthalen-1-ylsulfonyl)piperidin-2-yl)methoxy)-1-(4-(1-methylpiperidin-4-yl)piperazin-1-yl)ethanone dihydrochloride]
4 | 99.2% | 97.1% | COc1cc(C)c(S(=O)(=O)N2CCCCC2COCC(=O)N2CCN(c3ncnc4ccsc34)CC2)c(C)c1 (stereo not shown) [Example 113, 2-((1-(4-methoxy-2,6-dimethylphenylsulfonyl)piperidin-2-yl)methoxy)-1-(4-(thieno[3,2-d]pyrimidin-4-yl)piperazin-1-yl)ethanone]
5 | 91% | 80.6% | Cc1cc(C)c(S(=O)(=O)N2Cc3ccccc3CC2COCC(=O)N2CCN(CCCN(C)C)CC2)c(C)c1 (stereo not shown) [Example 25, 1-[4-(3-dimethylamino-propyl)-piperazin-1-yl]-2-[2-(2,4,6-trimethyl-phenylsulfonyl)-1,2,3,4-tetrahydro-isoquinolin-3-ylmethoxy]-ethanone]
6 | 105% | 97.9% | COc1cc(C)c(S(=O)(=O)N2Cc3ccccc3C[C@H]2COCC(=O)N2CCN(CC3CCN(C)CC3)CC2)c(C)c1 [Example 185, (S)-2-((2-(4-methoxy-2,6-dimethylphenylsulfonyl)-1,2,3,4-tetrahydroisoquinolin-3-yl)methoxy)-1-(4-((1-methylpiperidin-4-yl)methyl)piperazin-1-yl)ethanone]
7 | 99.9% | 99.3% | COc1cc(C)c(S(=O)(=O)N2CCCCC2COCC(=O)N2CCC(c3ccncc3)C2)c(C)c1 (stereo not shown) [Example 238, 2-((1-(4-methoxy-2,6-dimethylphenylsulfonyl)piperidin-2-yl)methoxy)-1-(3-(pyridin-4-yl)pyrrolidin-1-yl)ethanone]
8 | 42.1% | 7.33% | CN(C)CCCN1CCN(C(=O)COCC2CCCN2S(=O)(=O)c2ccc(Cl)c(Cl)c2)CC1 (stereo not shown) [Example 88, 2-[1-(3,4-dichloro-phenylsulfonyl)-pyrrolidin-2-ylmethoxy]-1-[4-(3-dimethylamino-propyl)-piperazin-1-yl]-ethanone]
9 | 90.8% | 94.5% | Cc1nn(C)c(Cl)c1S(=O)(=O)N1CCCCC1COCC(=O)N1CCN(C2CCN(C)CC2)CC1 (stereo not shown) [Example 128, 2-((1-(5-chloro-1,3-dimethyl-1H-pyrazol-4-ylsulfonyl)piperidin-2-yl)methoxy)-1-(4-(1-methylpiperidin-4-yl)piperazin-1-yl)ethanone]
10 | 97.3% | 99.6% | COc1cc(C)c(S(=O)(=O)N2CCCCC2COCC(=O)N2CCC(C(=O)N3CCN(C)CC3)CC2)c(C)c1 (stereo not shown) [Example 146, 2-((1-(4-methoxy-2,6-dimethylphenylsulfonyl)piperidin-2-yl)methoxy)-1-(4-(4-methylpiperazin-1-carbonyl)piperidin-1-yl)ethanone]
11 | 102% | 100% | COc1cc(C)c(S(=O)(=O)N2Cc3ccccc3CC2COCC(=O)N2CCN(C3CCN(C)CC3)CC2)c(C)c1C (stereo not shown) [Example 562, 2-((2-(4-methoxy-2,3,6-trimethylphenylsulfonyl)-1,2,3,4-tetrahydroisoquinolin-3-yl)methoxy)-1-(4-(1-methylpiperidin-4-yl)piperazin-1-yl)ethanone]
